Key:
[1] = Pharmacokinetics in mice, oral dose; assay type: in vivo, mice (strain FVB/N); details: oral 10 mg/kg
Method: Test compounds were administered to rodents (mice or rats) either orally, subcutaneously or intravenously. To determine blood or plasma concentrations blood samples were taken at different time points and analysed for the concentration of test compound by LC/MS. Brain concentrations were measured by sacrificing animals and LC/MS analysis of brain homogenate. FIG. 2 illustrates graphs for the concentration (ng/ml) Compound (2) in blood, blood plasma and in the brain at 30 minutes to 7 hours after oral treatment.

[2] = system: kainic acid treated NMRI mice; assay: Kainic acid model of epilepsy; assay type: in vivo, Male NMRI mice; details: 150 mg/kg for 3 consecutive days, kainic acid 45 mg/kg s.c., n=21
Method: Male NMRI mice (n=21) were given 150 mg/kg of Compound (2) (60% PEG400/water solution) for 3 consecutive days. 2 hours after the last dose the animals were given subcutaneously 45 mg/kg of kainic acid. Behaviour was monitored for 3 hours. On day 7 after receiving kainic acid the animals were sacrificed and brain analysed by immunohistochemistry for markers of neurodegeneration.

SH-SY5Y cells = assay: Thapsigargin treated cell death assay in SH-SY5Y cells; assay type: cell-based, human; details: compound at 10 μM; positive = protection from cell death, negative = compound toxicity
Outline: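 SH-SY5Y neuroblastoma cells given compound (typically 1, 3 and 10 μM, triplicate) 30 min before thapsigargin, with cyclosporin A (3 and 10 μM) as positive control. Cell death read kinetically over 24 h by CellTox Green DNA-binding fluorescence; values are % recovery at 10 μM, usually at 8 h, positive meaning protection.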

cyclophilin A = cyclophilin A (Homo sapiens (Human), UniProt P62937); assay: Functional peptidyl prolyl isomerase (PPIase) spectrophotometric assay, cyclophilin A; assay type: biochemical; details: first value of CypA/D cell
Outline: (§1)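 Cuvette-based UV/Vis assay of PPIase-catalysed cis-to-trans isomerisation of a peptide substrate. First-order rate constants fitted to absorbance, background rate subtracted. Ki derived from rate constant versus inhibitor concentration, typically 6-point curves in duplicate.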

[3] = Pharmacokinetics in mice, subcutaneous administration; assay type: in vivo, mice (strain FVB/N); details: subcutaneous 10 mg/kg; for Tmax / Cmax / half-life: sc
Method: Test compounds were administered to rodents (mice or rats) either orally, subcutaneously or intravenously. To determine blood or plasma concentrations blood samples were taken at different time points and analysed for the concentration of test compound by LC/MS. Brain concentrations were measured by sacrificing animals and LC/MS analysis of brain homogenate. FIG. 3 illustrates graphs for the concentration (ng/ml) Compound (2) in blood, blood plasma and in the brain at 30 minutes to 7 hours after the same dosage administered sub-cutaneously.

cyclophilin D = cyclophilin D (Homo sapiens (Human), UniProt P30405); assay: Functional peptidyl prolyl isomerase (PPIase) spectrophotometric assay, cyclophilin D; assay type: biochemical; details: second value of CypA/D cell; read-out: Ki CypD
Outline: as §1

EAE C57BL/6J mice = assay: Experimental autoimmune encephalomyelitis (EAE) mouse model of multiple sclerosis; assay type: in vivo; details: 75 mg/kg orally BID for 14 days
Method: C57BL/6 mice are the most commonly used strain. For the induction of EAE, typically, the immunogenic epitope MOG35-55 of myelin oligodendrocyte glycoprotein is suspended in complete Freund's adjuvant (CFA) prior to immunization. Thereafter, pertussis toxin (PT) is applied on the day of immunization and a couple of days later to facilitate the induction of EAE. Animals are assessed by body weight change, EAE scoring and histopathological examination for both inflammation and demyelination.
Compound (2) was dissolved at a dose level of 75 mg/kg with a final concentration of 20 mg/ml (in 66.6% PEG/water), and administered orally BID (i.e. every 12 hours) to C57BL/6J mice at a dose volume of 3.75 ml/kg. Treatment was started concomitant with the first signs of disease (around days 10-12) and continued for 14 days. The animals were evaluated for general clinical signs, body weight change and neurological score. After termination of treatment the animals were sacrificed, brains and spinal cords were collected, fixed in formalin 4% and processed for staining with haematoxylin and eosin.

[4] = FVB/N, mouse, brain, read-out: Tmax Brain
[5] = FVB/N, mouse, plasma, read-out: Cmax Plasma
[6] = FVB/N, mouse, plasma, read-out: T1/2 Plasma (converted)
[7] = FVB/N, mouse, plasma, read-out: Tmax Plasma
[8] = FVB/N, mouse, whole blood, read-out: Cmax Whole blood
[9] = FVB/N, mouse, whole blood, read-out: T1/2 Whole blood (converted)
[10] = FVB/N, mouse, whole blood, read-out: Tmax Whole blood
[11] = vs vehicle group, not statistically significant

cyclophilin D, sequence (P30405 30-207, species assumed): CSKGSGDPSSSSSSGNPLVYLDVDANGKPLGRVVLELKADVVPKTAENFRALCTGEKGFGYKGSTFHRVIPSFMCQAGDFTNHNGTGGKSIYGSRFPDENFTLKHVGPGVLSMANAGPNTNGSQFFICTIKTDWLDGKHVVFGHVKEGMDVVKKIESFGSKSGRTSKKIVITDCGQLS
cyclophilin A, sequence (P62937 whole entry, species assumed): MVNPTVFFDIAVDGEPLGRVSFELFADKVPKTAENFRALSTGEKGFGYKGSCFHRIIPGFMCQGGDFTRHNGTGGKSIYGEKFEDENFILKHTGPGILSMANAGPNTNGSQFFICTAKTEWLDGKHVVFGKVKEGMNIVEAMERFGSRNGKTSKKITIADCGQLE

## CC(C)[C@@H]1OC(=O)C(C)(C)/C=C/c2ccc3ccc(nc3c2)N(C)NC(=O)[C@@H]2CCCN(N2)C(=O)[C@H](C)NC1=O [Compound (2)]
[1]; FVB/N, mouse, brain and blood
  Kp: 0.72
[1]; [4]
  Tmax: 420 min
[1]; [5]
  Cmax: 582 ng/mL
[1]; [6]
  half-life: 180 min
[1]; [7]
  Tmax: 30 min
[1]; [8]
  Cmax: 1490 ng/mL
[1]; [9]
  half-life: 327 min
[1]; [10]
  Tmax: 30 min
[1]
  AUC0-t Plasma: 3180 ng/mL/h
  AUC0-t Whole blood: 12500 ng/mL/h
  Blood/plasma: 2.87 Ratio
  Cmax Brain: 297 ng/mL
[2]; control group 5 animals
  Number of animals with visible signs of neurodegeneration: 2 animals
[2]; control group 24%
  Percent of animals with visible signs of neurodegeneration: 9%
SH-SY5Y cells
  SYSY [10 μM] % recovery: 40.4%
Cyclophilin A
  Ki: 5 nM
[3]; FVB/N, mouse, brain and blood
  Kp: 0.9
[3]; [4]
  Tmax: 120 min
[3]; [5]
  Cmax: 1640 ng/mL
[3]; [6]
  half-life: 106 min
[3]; [7]
  Tmax: 30 min
[3]; [8]
  Cmax: 2640 ng/mL
[3]; [9]
  half-life: 190 min
[3]; [10]
  Tmax: 30 min
[3]
  AUC0-t Brain: 3370 ng/mL/h
  AUC0-t Plasma: 3730 ng/mL/h
  AUC0-t Whole blood: 8150 ng/mL/h
  Blood/plasma: 2.2 Ratio
  Cmax Brain: 563 ng/mL
Cyclophilin D
  Ki: 17 nM
EAE C57BL/6J mice; vs untreated control, FIG. 4
  Extent of spinal cord damage: significant reduction
EAE C57BL/6J mice; [11]
  Body weight gain: better body weight gain
  Clinical score: reduction in the clinical score
